The nature of data set [1]: Solubility tests of ropivacaine free base and corresponding salts. It is filed as physicochemical. The source says:
If a drug dissolved completely, addition of this drug was continued until saturation.

A short description of data set [2]: Structural stability of ropivacaine sustained-release formulations (content determination). It is filed as physicochemical. The note with it: content determination after 30 days.
Data set [3] can be described thus: Formulation experiment for sustained-release formulation delivery system. The data set is classed as physicochemical. The note with it: for Solubility: in ethanol, benzyl alcohol, benzyl benzoate, and ethyl lactate. The source says: Detailed experimental procedures were similar to those in Experimental Example 2. As shown in the experimental results, part of the drug delivery system combinations that may be used in the formula of the sustained-release formulation delivery system is as follows: […]

The nature of data set [4]: In vitro dissolution stability of the drug formulations. The note with it: compared with ropivacaine free base. It is filed as physicochemical.
Another data set has as its system plasma proteins. The conditions noted are these: concentration-dependent; cited from earlier work.
The conditions of data set [5]: cited from earlier work.
For the next data set, the system named is patients. The note with it: cited from earlier work.
A short description of data set [6]: Compound compositions: dezocine and parecoxib in the drug delivery systems. The data set is classed as physicochemical. The conditions noted are these: prescribed compositions of Table IV; 25° C. and 4° C., about 24 h.
Data set [7] is described as follows: Verification of the solubility of various local anesthetics in the sustained-release drug delivery system. It is filed as physicochemical. The note with it: 4° C., 24 hours, 15-20 mg/ml. On the procedure: The 12 local anesthetics were each added into the selected drug delivery systems, and the dissolution process of the drugs was observed (norm: 15-20 mg/ml, observed at 25° C. for 24 hours with recordation; or observed at 4° C. for 24 hours with recordation).

Setting [8] is: in glyceryl monoacetate, 25° C.
The mark [9] stands for this setting: in tetrahydrofurfuryl polyethylene glycol ether, 25° C.

Where a name gives a salt, the structure may show the parent alone. Read-outs that look alike come from different tables or passages of the source.

The term Solubility denotes the concentration that dissolves in the medium under given conditions.

As for `CCCN1CCCC[C@H]1C(=O)Nc1c(C)cccc1C` [Ropivacaine free base], the Solubility was 155000 µg/mL in data set [1] (in anhydrous ethanol, 25° C.); “exceeding 150 mg/ml” in [1] (in anhydrous ethanol, 25° C., listed as ropivacaine free base); 225000 µg/mL in data set [1] (in benzyl alcohol, 25° C.); “exceeding 150 mg/ml” in data set [1] (in benzyl alcohol, 25° C., listed as ropivacaine free base); 70000 µg/mL in [1] (in benzyl benzoate, 25° C.); 17000 µg/mL in [1] (in castor oil, 25° C.). Also, the Solubility in data set [1] (in corn oil, 25° C.) came out at 9400 µg/mL; in data set [1] (in ethyl lactate, 25° C.), 80000 µg/mL; in data set [1] (in ethyl oleate, 25° C.) it was 14900 µg/mL; in [1] (setting [8]), 18000 µg/mL; in data set [1] (in olive oil, 25° C.), 9800 µg/mL; in [1] (in sesame oil, 25° C.), 11700 µg/mL. The Solubility in data set [1] (in soybean oil, 25° C.) worked out at 9600 µg/mL; in [1] (setting [9]), 39600 µg/mL. Moreover, the “structural stability in various prescribed compositions” value in [2] is “structurally stable and did not degrade”. The “solubility in mixed solvent” value in data set [3] was “increased solubility”.
For `CCCN1CCCC[C@H]1C(=O)Nc1c(C)cccc1C` [Ropivacaine hydrochloride], the Solubility in [1] (anhydrous ethanol, 25 °C, organic solvent or mixture, thermodynamic from solid, in anhydrous ethanol, read-out: Solubility) is 95000 µg/mL; in [1] (benzyl alcohol, 25 °C, organic solvent or mixture, thermodynamic from solid, in benzyl alcohol, read-out: Solubility) it was greater than 100000 µg/mL; in [1] (benzyl benzoate, 25 °C, organic solvent or mixture, thermodynamic from solid, in benzyl benzoate, read-out: Solubility), 2500 µg/mL; in [1] (castor oil, 25 °C, oil or lipid, thermodynamic from solid, in castor oil, read-out: Solubility) it was 1700 µg/mL; in data set [1] (corn oil, 25 °C, oil or lipid, thermodynamic from solid, in corn oil, read-out: Solubility), 2500 µg/mL; in data set [1] (ethyl lactate, 25 °C, organic solvent or mixture, thermodynamic from solid, in ethyl lactate, read-out: Solubility) it was 16500 µg/mL. The Solubility in data set [1] (ethyl oleate, 25 °C, oil or lipid, thermodynamic from solid, in ethyl oleate, read-out: Solubility) was 2200 µg/mL; in data set [1] (glyceryl monoacetate, 25 °C, organic solvent or mixture, thermodynamic from solid, in glyceryl monoacetate, read-out: Solubility), 30000 µg/mL; in [1] (in benzyl alcohol, 25° C.) it was 140000 µg/mL; in [1] (olive oil, 25 °C, oil or lipid, thermodynamic from solid, in olive oil, read-out: Solubility), 1700 µg/mL; in data set [1] (sesame oil, 25 °C, oil or lipid, thermodynamic from solid, in sesame oil, read-out: Solubility), 2000 µg/mL; in data set [1] (soybean oil, 25 °C, oil or lipid, thermodynamic from solid, in soybean oil, read-out: Solubility), 2000 µg/mL. Further, the Solubility in [1] (tetrahydrofurfuryl polyethylene glycol ether, 25 °C, organic solvent or mixture, thermodynamic from solid, in tetrahydrofurfuryl polyethylene glycol ether, read-out: Solubility) is 9000 µg/mL. In addition, in data set [3] (mixture of benzyl benzoate with one of ethanol and benzyl alcohol), the “solubility in mixed solvent” value is “increased solubility”.
For `CCCN1CCCC[C@H]1C(=O)Nc1c(C)cccc1C.CS(=O)(=O)O` [Ropivacaine methansulfonate], the Solubility was 320000 µg/mL in [1] (in anhydrous ethanol, 25° C.); “exceeding 190 mg/ml” in data set [1] (in anhydrous ethanol, 25° C., listed as ropivacaine methansulfonate); 550000 µg/mL in data set [1] (in benzyl alcohol, 25° C.); “exceeding 190 mg/ml” in [1] (in benzyl alcohol, 25° C., listed as ropivacaine methansulfonate); 2000 µg/mL in [1] (in benzyl benzoate, 25° C.); 2000 µg/mL in data set [1] (in castor oil, 25° C.). Besides, the Solubility was 1700 µg/mL in data set [1] (in corn oil, 25° C.); 198000 µg/mL in data set [1] (in ethyl lactate, 25° C.); “exceeding 190 mg/ml” in data set [1] (in ethyl lactate, 25° C., listed as ropivacaine methansulfonate); 2000 µg/mL in [1] (in ethyl oleate, 25° C.); 50000 µg/mL in [1] (setting [8]); 2000 µg/mL in data set [1] (in olive oil, 25° C.). For the same molecule, the Solubility in [1] (in sesame oil, 25° C.) was 1700 µg/mL; in data set [1] (in soybean oil, 25° C.), 2500 µg/mL; in data set [1] (setting [9]) it was 13200 µg/mL. In addition, the “solubility in various prescribed compositions” value in data set [4] is “slightly poorer than that of ropivacaine free base”. The “solubility in mixed solvent” value in [3] is recorded as “increased solubility”.
For the molecule `CCCN1CCCC[C@H]1C(=O)Nc1c(C)cccc1C` [Ropivacaine, 1-propy 1-2,6-pipeco loxylidide laevo isomer], in the data set on plasma proteins, the “association with plasma proteins” value is 94%. Besides, in data set [5] (epidural), the “epidural absorption, half-time of fast phase” value is 14 min and the “epidural absorption, half-time of slow phase” value is 4 h. For the same molecule, the steady distribution volume in data set [5] (in vivo) is reported as 47 L. Further, the “cardiac toxicity and safety” value with patients (0.1% ropivacaine versus 0.1% bupivacaine, elderly patients) was “relatively lower cardiac toxicity and higher safety in use”. Also, the “analgesic effect of continuous epidural infusion” value in the data set with patients (0.1% ropivacaine, elderly patients after lower limb surgeries (Zonglin YANG et al.)) is “comparable to that with 0.1% bupivacaine”. Besides, in the data set with patients (0.375% ropivacaine versus 0.25% bupivacaine (Qihong ZHAO et al.)), the “transaxillary brachial plexus block” value was “faster onset, better efficacy, and fewer adverse effects as compared to 0.25% bupivacaine”. Besides, the “local infiltration anesthetic analgesia” value in the data set with patients (human, in vivo) is “substantial and lasting analgesic effect with few adverse reactions”. In addition, the analgesic duration result in the data set on patients (human, one clinical injection) is on record as “about 8 hours”. For the same molecule, the “gynecologic post-operative patient-controlled analgesia” value in the data set with patients (versus bupivacaine (Shunfu CHEN)) is “more suitable for patient-controlled analgesic local anesthesia in gynecologic post-operative patients than bupivacaine”.
With `C[C@@]12CCCCC[C@@H](Cc3ccc(O)cc31)[C@@H]2N` [dezocine], the Solubility in data set [6] is greater than 30000 µg/mL; in data set [3], “good solubility”.
The matching figures for `CCC(=O)NS(=O)(=O)c1ccc(-c2c(-c3ccccc3)noc2C)cc1` [parecoxib]: greater than 20000 µg/mL and “good solubility”.
Turning to `CCN(CC)CCOC(=O)c1ccc(N)cc1` [procaine], the “solubility in the ethyl oleate/soybean oil drug delivery system” value in data set [7] was “slightly precipitated”.
Still for that read-out and setting: to `CCCCNc1ccc(C(=O)OCCN(C)C)cc1` [tetracaine] belongs “slightly precipitated”.

These data come from patent US11364299B2, “Non-addictive analgesic sustained-release drug delivery system and preparation method thereof” (LIPONT PHARMACEUTICALS INC., priority 2013, dated 2022).
